One assay concerns the target Cat L (UniProt P07711). The assay can be described thus: Cathepsin enzyme inhibition assay (fluorogenic peptide substrate Z-Val-Val-Arg-AMC), Cathepsin L. The conditions noted are these: enzyme 1 nM, substrate 20 μM, pH 6.5; read-out: CatL IC50. The assay is classed as biochemical, human and mouse. Put shortly:
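Fluorogenic cleavage of Z-Val-Val-Arg-AMC (20 μM) by 1 nM Cat L was monitored at ex 360/em 465 nm for 20 min, the linear phase. The buffer was 100 mM potassium phosphate pH 6.5 with 5 mM EDTA and DTT. IC50 values were derived by standard methods, in μM.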

In a further assay the target is Cathepsin S (UniProt P25774). Description: Cathepsin enzyme inhibition assay (fluorogenic peptide substrate Z-Val-Val-Arg-AMC), Cathepsin S. It is filed as biochemical, human and mouse. The conditions noted are these: enzyme 1 nM, substrate 20 μM, pH 6.5; read-out: CatS IC50. Put shortly: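 Compounds were combined with 1 nM human or mouse enzyme, and substrate then started the reaction. The buffer was potassium phosphate (100 mM, pH 6.5) containing EDTA-Na 5 mM, Triton X-100 0.001% and […] 5 mM.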

As for `CC(C)(C)OC(=O)N1C[C@H](S(=O)(=O)c2ccc(N3CCC(C(F)(F)F)CC3)cc2Cl)C[C@H]1C(=O)NC1(C#N)CC1` [Example 153, (2S,4R)-4-[2-Chloro-4-(4-trifluoromethyl-piperidin-1-yl)-benzenesulfonyl]-2-(1-cyano-cyclopropylcarbamoyl)-pyrrolidine-1-carboxylic acid tert.-butyl ester], the IC50 (commonly the point on the concentration scale where inhibition reaches its midpoint) at Cat L worked out at 44000 nM; at Cathepsin S it was 2.5 nM.

In the case of `N#CC1(NC(=O)[C@@H]2C[C@@H](S(=O)(=O)c3ccc(N4CCC(C(F)(F)F)CC4)cc3Cl)CN2)CC1` [Example 154, (2S,4R)-4-[2-Chloro-4-(4-trifluoromethyl-piperidin-1-yl)-benzenesulfonyl]-pyrrolidine-2-carboxylic acid (1-cyano-cyclopropyl)-amide], the IC50 on Cat L worked out at 6630 nM; at Cathepsin S, 1.8 nM.

With `N#CC1(NC(=O)[C@@H]2C[C@@H](S(=O)(=O)c3ccc(N4CCC(F)(F)CC4)cc3Cl)CN2)CC1` [Example 155, (2S,4R)-4-[2-Chloro-4-(4,4-difluoro-piperidin-1-yl)-benzenesulfonyl]-pyrrolidine-2-carboxylic Acid (1-cyano-cyclopropyl)-amide], the IC50 at Cat L turned out to be 8320 nM; at Cathepsin S, 2.5 nM.

Regarding `N#CC1(NC(=O)[C@@H]2C[C@@H](S(=O)(=O)c3ccc(N4CCC(C(F)(F)F)CC4)cc3Cl)CN2C(=O)C2(C(F)(F)F)CC2)CC1` [Example 156, (2S,4R)-4-[2-Chloro-4-(4-trifluoromethyl-piperidin-1-yl)-benzenesulfonyl]-1-(1-trifluoromethyl-cyclopropanecarbonyl)-pyrrolidine-2-carboxylic acid (1-cyano-cyclopropyl)-amide], the IC50 at Cat L was determined as 4400 nM; at Cathepsin S it was 0.4 nM.

For `N#CC1(NC(=O)[C@@H]2C[C@@H](S(=O)(=O)c3ccc(N4CCC(F)(F)CC4)cc3Cl)CN2C(=O)C2(C(F)(F)F)CC2)CC1` [Example 157, (2S,4R)-4-[2-Chloro-4-(4,4-difluoro-piperidin-1-yl)-benzenesulfonyl]-1-(1-trifluoromethyl-cyclopropanecarbonyl)-pyrrolidine-2-carboxylic acid (1-cyano-cyclopropyl)-amide], the IC50 was 4410 nM at Cat L and 0.4 nM on Cathepsin S.

`CC(C)(C)OC(=O)N1C[C@@H](S(=O)(=O)c2ccccc2C(F)(F)F)C[C@H]1C(=O)NC1(C#N)CC1` [Example 158, (2S,4S)-2-(1-Cyano-cyclopropylcarbamoyl)-4-(2-trifluoromethyl-benzenesulfonyl)-pyrrolidine-1-carboxylic acid tert.-butyl ester]: the IC50 at Cat L is ≥ 25000 nM; on Cathepsin S, 120 nM.

Regarding `N#CC1(NC(=O)[C@@H]2C[C@H](S(=O)(=O)c3ccccc3C(F)(F)F)CN2)CC1` [Example 159, (2S,4S)-4-(2-Trifluoromethyl-benzenesulfonyl)-pyrrolidine-2-carboxylic acid (1-cyano-cyclopropyl)-amide], the IC50 is ≥ 25000 nM at Cat L and 2610 nM on Cathepsin S.

Take `COc1ccc(N2C[C@H](S(=O)(=O)c3ccccc3C(F)(F)F)C[C@H]2C(=O)NC2(C#N)CC2)cc1` [Example 160, (2S,4R)-1-(4-Methoxy-phenyl)-4-(2-trifluoromethyl-benzenesulfonyl)-pyrrolidine-2-carboxylic Acid (1-cyano-cyclopropyl)-amide]: the IC50 on Cat L is ≥ 25000 nM; on Cathepsin S, 6 nM.

On to `N#CC1(NC(=O)[C@@H]2C[C@@H](S(=O)(=O)c3ccc(N4CCOCC4)cc3Cl)CN2C(=O)C2(C(F)(F)F)CC2)CC1` [Example 161, (2S,4R)-4-(2-Chloro-4-morpholin-4-yl-benzenesulfonyl)-1-(1-trifluoromethyl-cyclopropanecarbonyl)-pyrrolidine-2-carboxylic acid (1-cyano-cyclopropyl)-amide], for which the IC50 stood at 6070 nM on Cat L and 0.4 nM at Cathepsin S.

As for `N#CC1(NC(=O)[C@H]2C[C@@H](S(=O)(=O)c3ccc(N4CCOCC4)cc3Cl)CN2C(=O)C2(C(F)(F)F)CC2)CC1` [Example 162, (2R,4R)-4-(2-Chloro-4-morpholin-4-yl-benzenesulfonyl)-1-(1-trifluoromethyl-cyclopropanecarbonyl)-pyrrolidine-2-carboxylic acid (1-cyano-cyclopropyl)-amide], the IC50 is ≥ 25000 nM at Cat L and 23.5 nM at Cathepsin S.

In the case of `N#CC1(NC(=O)[C@@H]2C[C@@H](S(=O)(=O)c3ccc(N4CCNCC4)cc3Cl)CN2C(=O)C2(C(F)(F)F)CC2)CC1` [Example 163, (2S,4R)-4-(2-Chloro-4-piperazin-1-yl-benzenesulfonyl)-1-(1-trifluoromethyl-cyclopropanecarbonyl)-pyrrolidine-2-carboxylic acid (1-cyano-cyclopropyl)-amide formiate], the IC50 at Cat L stood at 2620 nM; at Cathepsin S, 0.3 nM.

Regarding `N#CCNC(=O)[C@@H]1C[C@@H](S(=O)(=O)c2ccccc2C(F)(F)F)CN1c1ccccc1[N+](=O)[O-]` [Example 164, (2S,4R)-1-(2-Nitro-phenyl)-4-(2-trifluoromethyl-benzenesulfonyl)-pyrrolidine-2-carboxylic acid cyanomethyl-amide], the 50% inhibitory concentration (IC50) was ≥ 25000 nM on Cat L and 0.8 nM at Cathepsin S.

In the case of `N#CC1(NC(=O)[C@H]2C[C@@H](S(=O)(=O)c3ccc(-n4cccn4)cc3Cl)CN2C(=O)C2(C(F)(F)F)CC2)CC1` [Example 165, (2R,4R)-4-(2-Chloro-4-pyrazol-1-yl-benzenesulfonyl)-1-(1-trifluoromethyl-cyclopropanecarbonyl)-pyrrolidine-2-carboxylic acid (1-cyano-cyclopropyl)-amide], the figures for the IC50 on Cat L and at Cathepsin S were ≥ 25000 nM and 110 nM, respectively.

Take `N#CC1(NC(=O)[C@@H]2C[C@@H](S(=O)(=O)c3ccccc3C(F)(F)F)CN2c2ccccc2[N+](=O)[O-])CC1` [Example 166, (2S,4R)-1-(2-Nitro-phenyl)-4-(2-trifluoromethyl-benzenesulfonyl)-pyrrolidine-2-carboxylic Acid (1-cyano-cyclopropyl)-amide]: the concentration for half-maximal inhibition (IC50) is ≥ 25000 nM at Cat L and 0.6 nM at Cathepsin S.

For the compound `N#CC1(NC(=O)[C@@H]2C[C@@H](S(=O)(=O)c3ccc(Cl)cc3Cl)CN2c2ccccc2[N+](=O)[O-])CC1` [Example 167, (2S,4R)-4-(2,4-Dichloro-benzenesulfonyl)-1-(2-nitro-phenyl)-pyrrolidine-2-carboxylic acid (1-cyano-cyclopropyl)-amide], the values for the IC50 on Cat L and on Cathepsin S were 17400 nM and 1.4 nM, respectively.

For `N#CC1(NC(=O)[C@@H]2C[C@@H](S(=O)(=O)c3ccc(Cl)cc3Cl)CN2C(=O)C2(C(F)(F)F)CC2)CC1` [Example 168, (2S,4R)-4-(2,4-Dichloro-benzenesulfonyl)-1-(1-trifluoromethyl-cyclopropanecarbonyl)-pyrrolidine-2-carboxylic acid (1-cyano-cyclopropyl)-amide], the IC50 at Cat L is 8800 nM; on Cathepsin S, 0.6 nM.

`N#CC1(NC(=O)[C@@H]2C[C@@H](S(=O)(=O)c3ccc(Cl)cc3Cl)CN2C(=O)C2(C(F)(F)F)CCC2)CC1` [Example 169, (2S,4R)-4-(2,4-Dichloro-benzenesulfonyl)-1-(1-trifluoromethyl-cyclobutanecarbonyl)-pyrrolidine-2-carboxylic acid (1-cyano-cyclopropyl)-amide]: the IC50 on Cat L worked out at 7580 nM; at Cathepsin S it was 0.4 nM.

(Values after US8163793B2, “Proline derivatives” (Hoffman-La Roche Inc., priority 2009, dated 2012).)
